Measured values reported in patent publication US20140037642A1, “METHODS AND COMPOSITIONS RELATING TO INHIBITION OF IGF-1R” (AMGEN INC., priority 2011, published 2014).

Assays:
[1] = system: metastatic pancreatic cancer patients; experiment: Overall survival in baseline circulating biomarker subgroups of the phase 2 study; assay type: in vivo, human; design: Median OS: unit not given here
From the text: To establish the relationship between levels of these baseline markers and overall survival, a Cox proportional hazard model was used to calculate hazard ratios (HR) using normalized log transformed marker concentrations. This analysis tests the risk of death associated with a unit increase in the normalized log baseline biomarker and this risk is expressed as a hazard ratio. Because of the small sample size, it is difficult to dissect prognostic associations from relationships that are modified by treatment with ganitumab relative to placebo, i.e., predictive. This is because the addition of treatment effect adds a variable to the analysis that compromises the power of the test masking significant predictive relationships that may exist. However even a prognostic relationship identified in this analysis is important because it informs the hypothesized relationship between circulating bioavailable ligands and the adaptation of the tumor to IGF-1R dependent progression, and in turn sensitivity to inhibitors that block IGF-1R or downstream signaling pathways.
This allows a direct test of the predictive value of using these markers in a dichotomized way to predict OS in pancreatic cancer patients that are treated with inhibitors of IGF-1R.
To represent these relationships Kaplan-Maier plots were generated that show the OS for the high and low subgroups by plotting the fraction of patients in each sub-group that survive against time.

[2] = system: metastatic pancreatic cancer patients; experiment: Placebo-controlled, randomized phase 2 study plus gemcitabine; assay type: in vivo, human
Description: The primary endpoint was six month overall survival rate.
Key inclusion criteria were histologically or cytologically documented metastatic adenocarcinoma of the pancreas, age eighteen years or older, ECOG PS 0 or 1, adequate hematologic, hepatic, renal, and coagulation function, amylase and lipase≦2.0×ULN, adequately controlled type 1 or 2 diabetes (amended during protocol to fasting blood glucose<[…] only), fasting blood glucose≦[…], HbAlc<8%, and written informed consent.
Key exclusion criteria were uncontrolled cardiac disease and prior chemotherapy or radiation in the adjuvant or metastatic setting.

IGF-1R = IGF-1R (Homo sapiens, UniProt P08069); details: biphasic binding; read-out: KD of high affinity binding to IGF-1R; cited from earlier work
[3] = patients with measurable disease at baseline, plus gemcitabine
[4] = plus gemcitabine, conatumumab 10 mg/kg Q2W or ganitumab 12 mg/kg Q2W
[5] = plus gemcitabine, conatumumab 10 mg/kg Q2W or ganitumab 12 mg/kg Q2W, listed as conatumumab
[6] = versus placebo plus gemcitabine

Conatumumab: conatumumab (AMG 655), amino acid sequences in FIG. 19; given with gemcitabine in the phase 2 study
Median OS ([1]; IGF-2 High (>=median)): 214
OS HR, treatment vs placebo ([1]; IGF-2 High (>=median)): 0.56
Median OS ([1]; IGF-2 Low (<median)): 263
OS HR, treatment vs placebo ([1]; IGF-2 Low (<median)): 1.08
Median OS ([1]; IGF-BP1 High (>=median)): 178
OS HR, treatment vs placebo ([1]; IGF-BP1 High (>=median)): 0.77
Median OS ([1]; IGF-BP1 Low (<median)): 254
OS HR, treatment vs placebo ([1]; IGF-BP1 Low (<median)): 0.68
Median OS ([1]; IGF-BP2 High (>=median)): 178
OS HR, treatment vs placebo ([1]; IGF-BP2 High (>=median)): 0.69
Median OS ([1]; IGF-BP2 Low (<median)): 244
OS HR, treatment vs placebo ([1]; IGF-BP2 Low (<median)): 0.91
Median OS ([1]; IGF-BP3 High (>=median)): 244
OS HR, treatment vs placebo ([1]; IGF-BP3 High (>=median)): 0.77
Median OS ([1]; IGF-BP3 Low (<median)): 129
OS HR, treatment vs placebo ([1]; IGF-BP3 Low (<median)): 0.86
Median OS ([1]; IGF-BP4 High (>=median)): 216
OS HR, treatment vs placebo ([1]; IGF-BP4 High (>=median)): 0.97
Median OS ([1]; IGF-BP4 Low (<median)): 216
OS HR, treatment vs placebo ([1]; IGF-BP4 Low (<median)): 0.86
Median OS ([1]; Total IGF-1 High (>=median)): 231
OS HR, treatment vs placebo ([1]; Total IGF-1 High (>=median)): 0.56
Median OS ([1]; Total IGF-1 Low (<median)): 178
OS HR, treatment vs placebo ([1]; Total IGF-1 Low (<median)): 0.53
Best Overall Response: Confirmed CR - n (%) [2, 3]: 0 (0) n (%)
Best Overall Response: Confirmed PR - n (%) [2, 3]: 1 (3) n (%)
Best Overall Response: PD - n (%) [2, 3]: 12 (32) n (%)
Best Overall Response: SD (Includes Unconfirmed PR) - n (%) [2, 3]: 22 (58) n (%)
Best Overall Response: Unconfirmed PR - n (%) [2, 3]: 2 (5) n (%)
Best Overall Response: Unknown - n (%) [2, 3]: 3 (8) n (%)
Abdominal pain, grade 3-5 ([2]; plus gemcitabine): 7 (17) n (%)
Anemia, grade 3-5 ([2]; plus gemcitabine): 4 (10) n (%)
Aspartate Aminotransferase Increased, grade 3-5 ([2]; plus gemcitabine): 3 (7) n (%)
Deep Vein Thrombosis, grade 3-5 ([2]; plus gemcitabine): 4 (10) n (%)
Fatigue, grade 3-5 ([2]; plus gemcitabine): 5 (12) n (%)
Hyperbilirubinemia, grade 3-5 ([2]; plus gemcitabine): 2 (5) n (%)
Hyperglycemia, grade 3-5 ([2]; plus gemcitabine): 1 (2) n (%)
Hypotension, grade 3-5 ([2]; plus gemcitabine): 3 (7) n (%)
Neutropenia, grade 3-5 ([2]; plus gemcitabine): 9 (22) n (%)
Pulmonary Embolism, grade 3-5 ([2]; plus gemcitabine): 1 (2) n (%)
Thrombocytopenia, grade 3-5 ([2]; plus gemcitabine): 7 (17) n (%)
rate of SD+PR ([2]; plus gemcitabine): 61%
6-Month OS Rate (95% CI) [2, 4]: 59% (42, 73)
12-Month OS Rate (95% CI) [2, 4]: 20% (9, 34)
Median OS, Months (95% CI) [2, 4]: 7.5 (4.8, 10.0) Months
Median PFS, Months (95% CI) [2, 4]: 4.0 (3.3, 5.0) Months
6-Month OS Rate (95% CI) [2, 5]: 59%
Median PFS, Months (95% CI) [2, 5]: 4.0 Months
Number of Patients Reporting ≧1 AE, grade 3-5 ([2]; plus gemcitabine, conatumumab N = 41, ganitumab N = 40): 36 (88) n (%)
Stratified HR (95% CI), OS [2, 6]: 0.87 (0.53, 1.43)
Stratified HR (95% CI), PFS [2, 6]: 0.65 (0.41, 1.05)
Stratified HR (95% CI), PFS ([2]; versus placebo plus gemcitabine, listed as conatumumab): 0.65

IGF-2: insulin-like growth factor, ligand of IGF-1R
Kd (IGF-1R): ~0.2 nM
